From ChEMBL document CHEMBL1155786, “Synthesis of 3'-deoxy-3'-C-methyl nucleoside derivatives” (Bioorg Med Chem, 2008)
Active and inactive are the calls of the source. The calls are words filed in the database; no cut-off is given here.

Tested on: Human immunodeficiency virus
Experiment: Antiviral activity against HIV at 100 uM
Type: functional, organism-based

Structure (SMILES) | Activity
Cc1cn([C@H]2C[C@H](C)[C@@H](CO)O2)c(=O)[nH]c1=O | inactive
C[C@H]1[C@@H](O)[C@H](n2cnc(C(N)=O)n2)O[C@@H]1COC(=O)c1ccccc1 | inactive
C[C@H]1[C@@H](O)[C@H](n2cnc(C(N)=O)c2N)O[C@@H]1CO | inactive
C[C@H]1C[C@H](n2cnc(C(N)=O)n2)O[C@@H]1CO | inactive
Nc1ccn([C@H]2C[C@H](O)[C@@H](CO)O2)c(=O)n1 | inactive
C[C@H]1C[C@H](n2cnc(C(N)=O)n2)O[C@@H]1COC(=O)c1ccccc1 | inactive
C[C@H]1[C@@H](O)[C@H](n2cnc(C(N)=O)n2)O[C@@H]1CO | inactive
C[C@H]1C[C@H](n2ccc(=O)[nH]c2=O)O[C@@H]1CO | inactive
C[C@H]1C[C@H](n2cnc3c(N)ncnc32)O[C@@H]1CO | inactive
C[C@H]1C[C@H](n2cnc3c(=O)[nH]c(N)nc32)O[C@@H]1CO | inactive
